The source of these data is patent US5593984A, “Cephalosporin derivatives” (Yuhan Corporation, priority 1992, dated 1997).

Common to all, as to assay type: cell-based
In one assay the test system is B. subtilis ATCC 6633. Briefly: MIC by agar dilution, B. subtilis ATCC 6633. Particulars: Bacillus subtilis, ATCC6633, 17 h; B. subtilis ATCC 6633; agar dilution, Mueller-Hinton agar; read-out: Minimal Inhibitory Concentration (MIC). On the procedure: (§1) These MIC values were determined by agar dilution method: that is, two-fold dilutions of each of the test compounds were made and dispersed in a Mueller-Hinton agar medium; standard test strain which had the 10^6 CFU (Colony Forming Unit) per ml was inoculated on the medium with microplanter (Toyo, Japan), and incubated at 35°-37° C. for 17±1 hours. The structures of Ceftazidime (CAZ) and Cefotaxime (CTX) which are used as control compounds are as follows: [drawing 12]
On the technique in general: In agar dilution the substance is mixed into plates at graded concentrations.

The subject of the next assay is Staph. aureus ATCC 6538P. Briefly: MIC by agar dilution, Staph. aureus ATCC 6538P. The settings on record: Staphylococcus aureus, ATCC6538P, 17 h; Staph. aureus ATCC 6538P; agar dilution, Mueller-Hinton agar; read-out: Minimal Inhibitory Concentration (MIC). The protocol: as §1
The subject of a further assay is Staph. aureus Smith. As to the kind of experiment: MIC by agar dilution, Staph. aureus Smith. The settings on record: Staphylococcus aureus, 17 h, Mueller-Hinton agar, read-out: Minimal Inhibitory Concentration (MIC). The protocol:
as §1

Another assay has as its system Staph. aureus C-57. Briefly: MIC by agar dilution, Staph. aureus C-57. The settings on record: Staphylococcus aureus, C57, 17 h, Mueller-Hinton agar, read-out: Minimal Inhibitory Concentration (MIC). On the procedure: as §1
Another assay relates to Staph. aureus C-5113. As to the kind of experiment: MIC by agar dilution, Staph. aureus C-5113. Particulars: Staphylococcus aureus, C5113, 17 h, Mueller-Hinton agar, read-out: Minimal Inhibitory Concentration (MIC). On the procedure: as §1
A further assay relates to Staph. aureus C-5216. Briefly: MIC by agar dilution, Staph. aureus C-5216. The settings on record: Staphylococcus aureus, C5216, 17 h, Mueller-Hinton agar, read-out: Minimal Inhibitory Concentration (MIC). The protocol: as §1
The subject of assay [1] is S. epidermidis ATCC 12228. As to the kind of experiment: MIC by agar dilution, S. epidermidis ATCC 12228. Particulars: Staphylococcus epidermidis, ATCC12228, 17 h; S. epidermidis ATCC 12228; agar dilution, Mueller-Hinton agar; read-out: Minimal Inhibitory Concentration (MIC). On the procedure:
as §1

The subject of the next assay is Ent. aerogenes IFO 12979. As to the kind of experiment: MIC by agar dilution, Ent. aerogenes IFO 12979. Particulars: Klebsiella aerogenes, IFO12979, 17 h, Mueller-Hinton agar, read-out: Minimal Inhibitory Concentration (MIC). On the procedure: as §1
Another assay has as its system Ent. cloacae IFO 13535. As to the kind of experiment: MIC by agar dilution, Ent. cloacae IFO 13535. Particulars: Enterobacter cloacae, IFO13535, 17 h; Ent. cloacae IFO 13535; agar dilution, Mueller-Hinton agar; read-out: Minimal Inhibitory Concentration (MIC). On the procedure:
as §1

In a further assay the test system is E. coli NIHJ JC-2. As to the kind of experiment: MIC by agar dilution, E. coli NIHJ JC-2. Particulars: Escherichia coli, NIHJJC2, 17 h; E. coli NIHJ JC-2; agar dilution, Mueller-Hinton agar; read-out: Minimal Inhibitory Concentration (MIC). On the procedure: as §1
Another assay relates to E. coli No. 29. As to the kind of experiment: MIC by agar dilution, E. coli No. 29. The settings on record: Escherichia coli, 17 h; E. coli No. 29; agar dilution, Mueller-Hinton agar; read-out: Minimal Inhibitory Concentration (MIC). On the procedure: as §1
The subject of a further assay is E. coli DY-1. Briefly: MIC by agar dilution, E. coli DY-1. Particulars: Escherichia coli, DY1, 17 h; E. coli DY-1; agar dilution, Mueller-Hinton agar; read-out: Minimal Inhibitory Concentration (MIC). On the procedure:
as §1

The next assay relates to K. pneumoniae NCTC 9632. As to the kind of experiment: MIC by agar dilution, K. pneumoniae NCTC 9632. Particulars: Klebsiella pneumoniae, NCTC9632, 17 h; K. pneumoniae NCTC 9632; agar dilution, Mueller-Hinton agar; read-out: Minimal Inhibitory Concentration (MIC). On the procedure: as §1
The next assay concerns M. morganii DY-1. As to the kind of experiment: MIC by agar dilution, M. morganii DY-1. The settings on record: Morganella morganii, DY1, 17 h; M. morganii DY-1; agar dilution, Mueller-Hinton agar; read-out: Minimal Inhibitory Concentration (MIC). On the procedure:
as §1

Assay [2] relates to Ps. aeruginosa ATCC 10145. As to the kind of experiment: MIC by agar dilution, Ps. aeruginosa ATCC 10145. Particulars: Pseudomonas aeruginosa, ATCC10145, 17 h, Mueller-Hinton agar, read-out: Minimal Inhibitory Concentration (MIC). On the procedure:
as §1

Assay [3] concerns Ps. aeruginosa NCTC 10490. As to the kind of experiment: MIC by agar dilution, Ps. aeruginosa NCTC 10490. Particulars: Pseudomonas aeruginosa, NCTC10490, 17 h, Mueller-Hinton agar, read-out: Minimal Inhibitory Concentration (MIC). On the procedure:
as §1

In the next assay the test system is Ps. aeruginosa DY-2. As to the kind of experiment: MIC by agar dilution, Ps. aeruginosa DY-2. The settings on record: Pseudomonas aeruginosa, DY2, 17 h; Ps. aeruginosa DY-2; agar dilution, Mueller-Hinton agar; read-out: Minimal Inhibitory Concentration (MIC). On the procedure:
as §1

For the next assay, the system named is P. vulgaris NCTC 8313. Briefly: MIC by agar dilution, P. vulgaris NCTC 8313. Particulars: Proteus vulgaris, NCTC8313, 17 h; P. vulgaris NCTC 8313; agar dilution, Mueller-Hinton agar; read-out: Minimal Inhibitory Concentration (MIC). The protocol: as §1
The next assay deals with Prov. stuartii IFO 12930. As to the kind of experiment: MIC by agar dilution, Prov. stuartii IFO 12930. The settings on record: Providencia stuartii, IFO12930, 17 h, Mueller-Hinton agar, read-out: Minimal Inhibitory Concentration (MIC). The protocol: as §1
In assay [4] the test system is Ser. marcescens IFO 12648. As to the kind of experiment: MIC by agar dilution, Ser. marcescens IFO 12648. Particulars: Serratia marcescens, IFO12648, 17 h; Ser. marcescens IFO 12648; agar dilution, Mueller-Hinton agar; read-out: Minimal Inhibitory Concentration (MIC). On the procedure:
as §1

SMILES strings stand for the structures. Converted amounts (≈) assume the structure as drawn.

For `Nc1nc(C(=NOCC(=O)O)C(=O)NC2C(=O)N3C(C(=O)[O-])=C(C[n+]4ccn5c(CO)ccc5c4)CSC23)cs1` (stereo not drawn) [Ex. 23, 7-β-[(Z)-2-(2-aminothiazol-4-yl)-2-carboxymethoxyiminoacetamido]-3-(6-hydroxymethylpyrrolo[1,2-a]pyrazinium-2-yl)methyl-3-cephem-4-carboxylate], the MIC in the assay with B. subtilis ATCC 6633 came out at 0.78 mg/L (≈ 1.33 µM); in the assay on Staph. aureus ATCC 6538P, 1.56 mg/L (≈ 2.65 µM); in the assay on Staph. aureus Smith it was 6.25 mg/L (≈ 10.6 µM); in the assay with Staph. aureus C-57, 100 mg/L (≈ 170 µM); in the assay with Staph. aureus C-5113, 6.25 mg/L (≈ 10.6 µM); in the assay with Staph. aureus C-5216, 12.5 mg/L (≈ 21.3 µM). Further, the MIC came to 0.39 mg/L (≈ 0.664 µM) in assay [1]; 0.012 mg/L (≈ 0.0204 µM) in the assay with Ent. aerogenes IFO 12979; 0.2 mg/L (≈ 0.34 µM) in the assay with Ent. cloacae IFO 13535; 0.025 mg/L (≈ 0.0425 µM) in the assay on E. coli NIHJ JC-2; 0.025 mg/L (≈ 0.0425 µM) with E. coli No. 29; 0.025 mg/L (≈ 0.0425 µM) with E. coli DY-1. Also, the MIC was 0.012 mg/L (≈ 0.0204 µM) with K. pneumoniae NCTC 9632; 0.012 mg/L (≈ 0.0204 µM) with M. morganii DY-1; 0.78 mg/L (≈ 1.33 µM) in assay [2]; 0.39 mg/L (≈ 0.664 µM) in assay [3]; 3.13 mg/L (≈ 5.33 µM) in the assay on Ps. aeruginosa DY-2; at most 0.006 mg/L with P. vulgaris NCTC 8313. For the same molecule, the MIC with Prov. stuartii IFO 12930 is at most 0.006 mg/L; in [4] it was 0.012 mg/L (≈ 0.0204 µM).

For `CCO/N=C(\C(=O)N[C@@H]1C(=O)N2C(C(=O)[O-])=C(C[n+]3ccn4cccc4c3C)CS[C@H]12)c1csc(N)n1` [Ex. 41, 7-β-[(Z)-2-(2-aminothiazol-4-yl)-2-ethoxyiminoacetamido]-3-(1-methylpyrrolo[1,2-a]pyrazinium-2-yl)methyl-3-cephem-4-carboxylate], the MIC turned out to be 0.2 mg/L (≈ 0.369 µM) with B. subtilis ATCC 6633; 0.2 mg/L (≈ 0.369 µM) in the assay with Staph. aureus ATCC 6538P; 0.39 mg/L (≈ 0.72 µM) in the assay with Staph. aureus Smith; 12.5 mg/L (≈ 23.1 µM) in the assay on Staph. aureus C-57; 0.78 mg/L (≈ 1.44 µM) with Staph. aureus C-5113; 1.56 mg/L (≈ 2.88 µM) with Staph. aureus C-5216. The MIC amounted to 0.1 mg/L (≈ 0.185 µM) in assay [1]; 0.025 mg/L (≈ 0.0462 µM) in the assay on Ent. aerogenes IFO 12979; 0.2 mg/L (≈ 0.369 µM) in the assay with Ent. cloacae IFO 13535; 0.025 mg/L (≈ 0.0462 µM) with E. coli NIHJ JC-2; 0.012 mg/L (≈ 0.0222 µM) in the assay with E. coli No. 29; 0.012 mg/L (≈ 0.0222 µM) with E. coli DY-1. Besides, the MIC was 0.025 mg/L (≈ 0.0462 µM) in the assay with K. pneumoniae NCTC 9632; 0.025 mg/L (≈ 0.0462 µM) in the assay with M. morganii DY-1; 1.56 mg/L (≈ 2.88 µM) in assay [2]; 0.39 mg/L (≈ 0.72 µM) in [3]; 3.13 mg/L (≈ 5.78 µM) in the assay with Ps. aeruginosa DY-2; at most 0.006 mg/L in the assay on P. vulgaris NCTC 8313. For the same molecule, the MIC with Prov. stuartii IFO 12930 was found to be 0.012 mg/L (≈ 0.0222 µM); in assay [4], 0.05 mg/L (≈ 0.0923 µM).

`CO/N=C(\C(=O)N[C@@H]1C(=O)N2C(C(=O)[O-])=C(C[n+]3ccn4c(C(C)C)cc(C(C)C)c4c3)CS[C@H]12)c1csc(N)n1` [Ex. 36, 7-β-[(Z)-2-(2-aminothiazol-4-yl)-2-methoxyiminoacetamido]-3-(6,8-diisopropyl-pyrrolo[1,2-a]pyrazinium-2-yl)methyl-3-cephem-4-carboxylate]: the MIC is 0.2 mg/L (≈ 0.335 µM) with B. subtilis ATCC 6633; 0.39 mg/L (≈ 0.652 µM) in the assay on Staph. aureus ATCC 6538P; 3.13 mg/L (≈ 5.24 µM) in the assay with Staph. aureus Smith; 100 mg/L (≈ 167 µM) in the assay on Staph. aureus C-57; 1.56 mg/L (≈ 2.61 µM) with Staph. aureus C-5113; 6.25 mg/L (≈ 10.5 µM) with Staph. aureus C-5216. The MIC was determined as 0.2 mg/L (≈ 0.335 µM) in [1]; 0.2 mg/L (≈ 0.335 µM) with Ent. aerogenes IFO 12979; 3.13 mg/L (≈ 5.24 µM) in the assay with Ent. cloacae IFO 13535; 0.78 mg/L (≈ 1.3 µM) with E. coli NIHJ JC-2; 0.2 mg/L (≈ 0.335 µM) with E. coli No. 29; 0.1 mg/L (≈ 0.167 µM) in the assay on E. coli DY-1. In addition, the MIC came to 0.78 mg/L (≈ 1.3 µM) in the assay on K. pneumoniae NCTC 9632; 1.56 mg/L (≈ 2.61 µM) with M. morganii DY-1; 50 mg/L (≈ 83.7 µM) in [2]; 25 mg/L (≈ 41.8 µM) in [3]; 100 mg/L (≈ 167 µM) in the assay on Ps. aeruginosa DY-2; 0.05 mg/L (≈ 0.0837 µM) in the assay on P. vulgaris NCTC 8313. Moreover, the MIC in the assay on Prov. stuartii IFO 12930 was 0.2 mg/L (≈ 0.335 µM); in assay [4], 0.78 mg/L (≈ 1.3 µM).
